Molecular target: T1, human CD73 (Homo sapiens, UniProt P21589)
T1 sequence (P21589 27-549): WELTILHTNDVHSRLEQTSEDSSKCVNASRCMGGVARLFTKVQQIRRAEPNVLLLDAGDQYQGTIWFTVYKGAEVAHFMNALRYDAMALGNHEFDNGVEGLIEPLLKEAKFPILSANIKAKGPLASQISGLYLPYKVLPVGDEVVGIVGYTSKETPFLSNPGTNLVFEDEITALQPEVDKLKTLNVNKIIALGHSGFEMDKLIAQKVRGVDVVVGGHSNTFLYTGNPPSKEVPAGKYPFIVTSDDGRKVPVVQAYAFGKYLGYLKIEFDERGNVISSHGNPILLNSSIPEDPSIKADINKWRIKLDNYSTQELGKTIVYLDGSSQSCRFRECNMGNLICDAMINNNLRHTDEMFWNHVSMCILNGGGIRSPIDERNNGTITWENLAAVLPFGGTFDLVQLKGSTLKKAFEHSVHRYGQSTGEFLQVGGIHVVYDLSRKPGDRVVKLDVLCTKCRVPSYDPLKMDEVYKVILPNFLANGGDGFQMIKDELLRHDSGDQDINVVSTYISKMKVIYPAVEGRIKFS
Test: Inhibition of Ecto-5′-nucleotidase (CD73) activity in CHO-CD73 cells, phosphate release from AMP
Type: cell-based
Conditions: CHO-K1 cells stably transfected with human CD73; 25 μM AMP; 50 minutes, 37° C.; read-out: Potency: CD73 IC50

Row | Compound | IC50 [µM]
1 | Fc1cc(Cl)ccc1Cn1nccc1-c1cc(Cl)c2nnn(-c3ccc4cn[nH]c4c3)c2c1 [Example 83] | < 0.1
2 | Cc1ccc(Cn2nccc2-c2cc(Cl)c3nnn(-c4ccc5cn[nH]c5c4)c3c2)nc1 [Example 84] | 0.1 to 1
3 | Fc1cc(-c2ccnn2Cc2ccccn2)cc2c1nnn2-c1ccc2cn[nH]c2c1 [Example 85] | 0.1 to 1
4 | Cc1ccc(Cn2nccc2-c2cc(F)c3nnn(-c4ccc5cn[nH]c5c4)c3c2)nc1 [Example 86] | 0.1 to 1
5 | Cc1cnc(Cn2nccc2-c2cc(F)c3nnn(-c4ccc5cn[nH]c5c4)c3c2)c(F)c1 [Example 87] | > 1
6 | Cc1cc(F)cnc1Cn1nccc1-c1cc(F)c2nnn(-c3ccc4cn[nH]c4c3)c2c1 [Example 88] | > 1
7 | Cc1ccc(Cn2nccc2-c2cc(Cl)c3nnn(-c4ccc5cn[nH]c5c4)c3c2)c(Cl)c1 [Example 89] | < 0.1
8 | Brc1ccc(Cn2nccc2-c2ccc3nnn(-c4ccc5cn[nH]c5c4)c3c2)cc1 [Example 90] | 0.1 to 1
9 | Fc1cc(-c2ccnn2Cc2ccc(C(F)F)cc2)cc2c1nnn2-c1ccc2cn[nH]c2c1 [Example 91] | 0.1 to 1
10 | CC(c1ccc(Br)cn1)n1nccc1-c1ccc2nnn(-c3ccc4cn[nH]c4c3)c2c1 (centres unmarked) [Example 92] | 0.1 to 1
11 | c1cc(-c2ccc3nnn(-c4ccc5cn[nH]c5c4)c3c2)n(CC2CCCCO2)n1 (centres unmarked) [Example 93] | > 1
12 | Clc1cc(-c2ccnn2CC2CCCCO2)cc2c1nnn2-c1ccc2cn[nH]c2c1 (centres unmarked) [Example 94] | 0.1 to 1
13 | Cc1cc(Cl)ccc1Cn1nccc1-c1cc(F)c2nnn(-c3ccc4cn[nH]c4c3)c2c1 [Example 95] | < 0.1
14 | Cc1cc(Cl)ccc1Cn1nccc1-c1cc(Cl)c2nnn(-c3ccc4cn[nH]c4c3)c2c1 [Example 96] | < 0.1
15 | Cc1ccc(Cn2nccc2-c2cc(F)c3nnn(-c4ccc5cn[nH]c5c4)c3c2)c(Cl)c1 [Example 97] | < 0.1
16 | Fc1cccnc1Cn1nccc1-c1ccc2nnn(-c3ccc4cn[nH]c4c3)c2c1 [Example 98] | > 1
17 | CC(c1ccccn1)n1nccc1-c1cc(Cl)c2nnn(-c3ccc4cn[nH]c4c3)c2c1 (centres unmarked) [Example 99] | > 1
18 | Cc1ccc(Cn2nccc2-c2cc(F)c3nnn(-c4ccc5cn[nH]c5c4)c3c2)cc1 [Example 100] | 0.1 to 1
19 | Fc1cc(-c2ccnn2Cc2ccc(Cl)cn2)cc2c1nnn2-c1ccc2cn[nH]c2c1 [Example 101] | < 0.1

Row | Compound | IC50 [µM]
20 | FC(F)(F)c1ccccc1Cn1nccc1-c1cc(Cl)c2nnn(-c3ccc4cn[nH]c4c3)c2c1 [Example 102] | 0.1 to 1
21 | Fc1cc(-c2ccnn2Cc2ccccc2C(F)(F)F)cc2c1nnn2-c1ccc2cn[nH]c2c1 [Example 103] | 0.1 to 1
22 | Fc1cc(Cl)cnc1Cn1nccc1-c1cc(Cl)c2nnn(-c3ccc4cn[nH]c4c3)c2c1 [Example 104] | 0.1 to 1
23 | N#Cc1ccc(Cn2nccc2-c2cc(Cl)c3nnn(-c4ccc5cn[nH]c5c4)c3c2)nc1 [Example 106] | 0.1 to 1
24 | N#Cc1ccc(Cn2nccc2-c2cc(F)c3nnn(-c4ccc5cn[nH]c5c4)c3c2)nc1 [Example 107] | 0.1 to 1
25 | FC(F)(F)c1ccc(Cn2nccc2-c2cc(Cl)c3nnn(-c4ccc5cn[nH]c5c4)c3c2)nc1 [Example 108] | 0.1 to 1
26 | Clc1ccc(Cn2nccc2-c2cc(Cl)c3nnn(-c4ccc5cn[nH]c5c4)c3c2)c(Br)c1 [Example 109] | 0.1 to 1
27 | FC(F)(F)c1ccc(Cn2nccc2-c2cc(Cl)c3nnn(-c4ccc5cn[nH]c5c4)c3c2)c(Cl)c1 [Example 110] | 0.1 to 1
28 | N#Cc1ccc(Cn2nccc2-c2cc(Cl)c3nnn(-c4ccc5cn[nH]c5c4)c3c2)c(F)c1 [Example 112] | < 0.1
29 | N#Cc1ccc(Cn2nccc2-c2cc(C#N)c3nnn(-c4ccc5cn[nH]c5c4)c3c2)cc1 [Example 114] | 0.1 to 1
30 | CC(c1ccc(C#N)cc1)n1nccc1-c1ccc2nnn(-c3ccc4cn[nH]c4c3)c2c1 (centres unmarked) [Example 115] | 0.1 to 1
31 | CC(c1ccc(C#N)cc1)n1nccc1-c1cc(F)c2nnn(-c3ccc4cn[nH]c4c3)c2c1 (centres unmarked) [Example 116] | 0.1 to 1
32 | CC(c1ccc(C#N)cc1)n1nccc1-c1cc(Cl)c2nnn(-c3ccc4cn[nH]c4c3)c2c1 (centres unmarked) [Example 117] | 0.1 to 1
33 | CC(c1ccc(C(N)=O)cc1)n1nccc1-c1ccc2nnn(-c3ccc4cn[nH]c4c3)c2c1 (centres unmarked) [Example 118] | > 1
34 | c1cc(-c2ccc3nnn(-c4ccc5cn[nH]c5c4)c3c2)n(Cc2ccc(C3CC3)cc2)n1 [Example 119] | 0.1 to 1
35 | N#Cc1ccc(Cn2nccc2-c2cc(F)c3nnn(-c4ccc5nc[nH]c5c4)c3c2)cc1 [Example 120] | > 1
36 | FC1(F)CN(CCn2nccc2-c2ccc3nnn(-c4ccc5cn[nH]c5c4)c3c2)C1 [Example 121] | > 1
37 | FC(F)(F)c1cc(-c2ccnn2Cc2ccc(Cl)cc2Cl)cc2c1nnn2-c1ccc2cn[nH]c2c1 [Example 122] | 0.1 to 1
38 | N#Cc1ccc(Cn2nccc2-c2cc(C(F)(F)F)c3nnn(-c4ccc5cn[nH]c5c4)c3c2)cc1 [Example 123] | 0.1 to 1

Row | Compound | IC50 [µM]
39 | Clc1cc(-c2ccnn2CCc2ccccc2)cc2c1nnn2-c1ccc2cn[nH]c2c1 [Example 124] | 0.1 to 1
40 | N#Cc1ccc(Cn2nccc2-c2cc(C(F)(F)F)c3nnn(-c4ccc5cn[nH]c5c4)c3c2)nc1 [Example 125] | 0.1 to 1
41 | Clc1ccc(Cn2nccc2-c2ccn3nnc(-c4ccc5cn[nH]c5c4)c3c2)c(Cl)c1 [Example 126] | < 0.1
42 | O=C(O)c1n[nH]c2cc(-n3nnc4c(Cl)cc(-c5ccnn5Cc5ccc(Cl)cc5Cl)cc43)ccc12 [Example 127] | > 1
43 | c1ccc(Cn2nccc2-c2cc3c(cn2)nnn3-c2ccc3cn[nH]c3c2)cc1 [Example 128] | 0.1 to 1
44 | N#Cc1ccc(Cn2nccc2-c2cnc3nnn(-c4ccc5cn[nH]c5c4)c3c2)cc1 [Example 129] | 0.1 to 1
45 | Fc1c(-c2ccnn2Cc2ccccc2)ccc2nnn(-c3ccc4cn[nH]c4c3)c12 [Example 130] | > 1
46 | N#Cc1ccc(Cn2nccc2-c2cc(F)c3cnn(-c4ccc5cn[nH]c5c4)c3c2)nc1 [Example 131] | > 1
47 | O=C(O)c1cccc(-n2nnc3c(F)cc(-c4ccnn4Cc4ccc(Cl)cc4Cl)cc32)c1 [Example 132] | > 1
48 | Fc1cc(-c2ccnn2Cc2ccc(Cl)cn2)cc2c1cnn2-c1ccc2cn[nH]c2c1 [Example 133] | > 1
49 | Clc1ccc(Cn2nccc2-c2cnc3nnn(-c4ccc5cn[nH]c5c4)c3c2)c(Cl)c1 [Example 134] | 0.1 to 1
50 | Fc1cc2nnn(-c3ccc4cn[nH]c4c3)c2cc1-c1ccnn1Cc1ccccc1 [Example 136] | > 1
51 | Fc1cc(-c2ccnn2Cc2ccccc2)cc2c1nnn2-c1cnc2cn[nH]c2c1 [Example 137] | > 1
52 | Fc1cc(-c2ccnn2Cc2ccccc2)cc2c1nnn2-c1cc2[nH]ncc2cn1 [Example 138] | > 1
53 | Nc1cc(-n2nnc3c(Cl)cc(-c4ccnn4Cc4ccc(Cl)cc4Cl)cc32)ccn1 [Example 139] | 0.1 to 1
54 | N#Cc1ccc(Cn2nccc2-c2cc3c(cn2)nnn3-c2ccc3cn[nH]c3c2)cc1 [Example 140] | 0.1 to 1
55 | Clc1ccc(Cn2nccc2-c2cc3c(cn2)nnn3-c2ccc3cn[nH]c3c2)c(Cl)c1 [Example 142] | < 0.1
56 | O=C1CCC(c2cc(F)c3nnn(-c4ccc5cn[nH]c5c4)c3c2)N1Cc1ccc(Cl)cc1Cl (centres unmarked) [Example 143] | > 1

Source: US11931343B2 (ARCUS BIOSCIENCES, INC., priority 2018, dated 2024)
